# According to PMC6143625, “A high throughput screen for next-generation leads targeting malaria parasite transmission” (Nature Communications, 2018):
# Tests used:
# [1] = tested on: P. falciparum stage V male gametocytes (male gamete formation); test: P. falciparum dual gamete formation assay (Pf DGFA), male readout (exflagellation), 48 h carry-over format; assay type: cell-based, Plasmodium falciparum NF54; conditions: for %Inhibition Male @2uM: primary screen, 48 h incubation, single replicate; for Male IC50 / IC50: SAR, Fig. 6 and Fig. 7; for IC50: Plasmodium falciparum, read-out: Male IC50; for Selectivity: parasite selectivity compared to Tox50 in HepG2 cells
# Experimental: (§1) P. falciparum NF54 strain (originally isolated from an imported malaria case in the Netherlands in the 1980s; BEI Resources, cat. no. MRA-1000) asexual and sexual stages culture was performed as previously described. Gametocyte cultures were initiated at 1% asexual ring stage parasitaemia and 4% haematocrit in 40 ml final volume. To induce gametocyte production, complete culture medium (CM) (RPMI 1640 supplemented with 25 mM HEPES, 50 µg ml^−1 hypoxanthine, 2 g l^−1 NaHCO3 and 10% pooled human male type A+ serum) was replaced daily for 14 days without fresh erythrocyte addition. Human serum was obtained from Interstate Blood Bank, A^+ serotype; no aspirin 2 h before drawing and no antimalarials 2 weeks before drawing. On day 14 after culture induction, gametocyte production was assessed by thin smear and Giemsa staining, and exflagellation accurately counted in a haemocytometer. Gametocyte cultures with >0.2% exflagellation (compared to total erythrocyte cell number) were deemed acceptable for use in the Pf DGFA. Note, all human biological samples were sourced ethically and their research use was in accord with the terms of the informed consents under an IRB/EC approved protocol.
# (§2) In screening mode, the assay was performed as described in Delves et al.[35] with a mean Z′ factor of 0.56 ± 0.14 (SD) (male) and 0.71 ± 0.17 (SD) (female). Pooled mature gametocyte cultures with the capacity to yield >0.2% exflagellation (of total cells) were diluted in CM to 14 million cells per ml and so that 700,000 cells were dispensed in 50 µl into each well of the warmed 384-well screening plates. Parasites were incubated in the plates with compounds for 48 h in a humidified chamber under 92%N2/5% CO2/3% O2 gas mix before gamete formation was triggered by addition of 10 µl per well ookinete medium (RPMI 1640 supplemented with 25 mM HEPES, 50 µg ml^−1 hypoxanthine, 2 g l^−1 NaHCO3, 100 µM xanthurenic acid) containing 0.5 µg ml^−1 anti-Pfs25 clone 4B7 (BEI Resources, cat. no. MRA-315) conjugated to the fluorophore Cy3 (GE Healthcare), and also by cooling the plate at 4 °C for 4 min and then a further 5 min at 28 °C. Exflagellation was recorded immediately by brightfield microscopy using a Nikon Ti-E widefield microscope at ×4 objective, ×1.5 zoom, recording a 10-frame video time-lapse over 2 s for each well. Afterwards, plates were incubated in the dark at 28 °C for a further 24 h to allow female gametes to maximally express Pfs25 on their surface. Female gamete formation was recorded by single-image fluorescence microscopy using the same microscope and magnification as above. Exflagellation and female gamete formation were quantified by specific algorithms designed with the open-source ICY Image Analysis software.
# (§3) Assay performance statistics, such as signal to background ratio, Z′ and robust 3×SD activity cut-off were calculated using templates in ActivityBase XE (IDBS, Guilford, Surrey, UK). Hit population analysis and visualisation were conducted using Spotfire DecisionSite (Spotfire, Inc., Somerville, Massachusetts). The pIC50 (−log IC50) values were obtained using the ActivityBase XE nonlinear regression function in the full curve analysis bundle. In screening mode, the Pf DGFA achieved a mean Z′ factor of 0.56 ± 0.14 (SD) (male) and 0.71 ± 0.17 (SD) (female).
# [2] = tested on: P. falciparum stage V female gametocytes (female gamete formation); test: P. falciparum dual gamete formation assay (Pf DGFA), female readout (Pfs25 expression), 48 h carry-over format; assay type: cell-based, Plasmodium falciparum NF54; conditions: primary screen, 2 uM, 48 h incubation, single replicate
# Experimental: as §1
# as §2, with “Parasites were incubated in the plates with compounds for 48 h in a humidified chamber under” left out
# as §3
Male IC50 [1],IC50 [1] [µM],Structure (SMILES),%Inhibition Male @2uM [1] [%],%Inhibition Female @2uM [2] [%],Selectivity [1]
,,Cc1ccc(-c2noc(C(C)NS(C)(=O)=O)n2)cc1 (stereo not drawn) [DDD01025633],37.79,<30,
,,Cc1ccc(C(=O)N2CC[C@@]3(O)CCCC[C@H]3C2)cc1 [DDD01026498],<30,36.05,
,,Cn1c(CN2CCCCCC2)cc(=O)c(O)c1CN1CCCC1 [DDD01027184],31.50,<30,
,,NC(=O)Cn1c(CO)cnc1SCc1ccccc1Cl [DDD01027486],<30,30.58,
,,O=C(Nc1ncnc2c1CCC2)c1cccc(F)c1 [DDD01027506],<30,33.11,
,,COCCc1nnc(NC(=O)CSCc2ccccc2)o1 [DDD01027773],33.86,<30,
,,O=S(=O)(c1ccccc1Br)N1CCC2(CC1)OCCS2 [DDD01027971],<30,31.22,
,,C1CCN(c2nc(N3CCOCC3)nc3n[nH]nc23)CC1 [DDD01027997],<30,37.52,
,,Cc1cccc(CS(=O)(=O)NCc2nn(C)c3c2COCC3)c1 [DDD01028624],<30,40.92,
,,CNC(=O)[C@@H]1COC[C@H]2CN(C(=O)c3ccc(OC)cc3)C[C@H]21 [DDD01030727],<30,30.90,
,,Cc1cnc(N2CCC[C@@H]3CN(CC(=O)N(C)C)C[C@@H]32)nc1 [DDD01031282],<30,34.01,
,,O=C(Cc1ccsc1)N1C[C@@H]2OCCN(c3cnccn3)[C@@H]2C1 [DDD01031297],<30,38.82,
,,CCn1ncc2c1C(COC)N(C(=O)c1ccc3c(c1)OCO3)CC2 (stereo not drawn) [DDD01031312],<30,34.92,
,,COCCN1CCO[C@@H]2CN(C(=O)NCc3cccnc3)CC[C@@H]2C1 [DDD01031413],<30,31.80,
,,c1cc(CNCC2Cn3nncc3CO2)co1 (stereo not drawn) [DDD01031485],<30,38.17,
,,Cc1ccc(CN2CCCC3(CCN(Cc4ccoc4)CC3)C2)cc1 [DDD01031609],<30,33.18,
,,Cc1ccc(N2CC[C@@H]3[C@@H]2CCN3C(=O)c2cscn2)nn1 [DDD01031738],<30,32.44,
,,CN1CCN(C(=O)c2cc3c(s2)CCN3C(=O)C2CC2)CC1 [DDD01031830],<30,50.73,
,,CO[C@H]1CC[C@H]2[C@H]1OCCN2Cc1ccc(F)c(F)c1 [DDD01032445],37.39,<30,
,,O=C(O)c1nnn(-c2cc(F)cc(F)c2)c1-c1ccncc1 [DDD01034739],<30,37.18,
,,Cc1cc2c(cc1NC(N)=O)OCO2 [DDD01037848],<30,32.47,
,,O=C(NCc1ccco1)c1[nH]nc2c1CS(=O)(=O)CC2 [DDD01037866],48.15,<30,
,,CCn1nc(C)c2nc(C)nc(NCCc3ccccc3)c21 [DDD01038123],<30,30.36,
,,CCn1cc(CN2CCN(C(=O)c3cc(C)c(C)s3)CC2)c(C)n1 [DDD01038373],<30,36.25,
,,CCN1CCN(C(=O)C2CC(=O)N(c3cnn(C(C)C)c3)C2)CC1 (stereo not drawn) [DDD01038633],42.61,<30,
,,Cc1ccc2c(c1)c(C)cc(=O)n2CCCN [DDD01038649],<30,33.62,

Male IC50 [1],IC50 [1] [µM],Structure (SMILES),%Inhibition Male @2uM [1] [%],%Inhibition Female @2uM [2] [%],Selectivity [1]
,,COc1ccc(NC(=O)c2cnc(C3CCN(C)CC3)nc2C)cc1 [DDD01056828],33.07,<30,
Inactive,,CC(=O)Nc1ccc(Br)cc1 [compound 7683],,,
,2.41,O=C(CCl)Nc1ccccc1 [compound 11485],,,21
,3.39,Cc1ccc(NC(=O)CCl)cc1 [compound 27967],,,15
,2.21,COc1cccc(NC(=O)CCl)c1 [compound 28667],,,14
,2.66,COc1ccc(NC(=O)CCl)cc1 [compound 31123],,,24
,6.41,CN(C(=O)CCl)c1ccccc1 [compound 75797],,,2
,10.4,Cc1ccccc1NC(=O)CCl [compound 101479],,,10
,1.63,O=C(CCl)N1CCc2ccccc21 [compound 176897],,,8
,11.2,O=C(CCl)Nc1ccccc1Cl [compound 222444],,,7
,4.03,O=C(CCl)Nc1ccc(Cl)cc1Cl [compound 225998],,,21
,1.95,O=C(CCl)Nc1ccc(O)cc1 [compound 236323],,,> 51
,5.84,Cc1cc(Cl)ccc1NC(=O)CCl [compound 249708],,,> 17
,4.5,Cc1cccc(NC(=O)CCl)c1 [compound 296325],,,18
Inactive,,O=C(CCl)Nc1ccccc1O [compound 350567],,,
Inactive,,O=C(Nc1ccc(Br)cc1)C(Cl)Cl [compound 532122],,,
Inactive,,O=C1C(Cl)=C(Cl)C(=O)N1c1ccc(Br)cc1 [compound 779209],,,
,5.25,N#Cc1ccccc1NC(=O)CCl [compound 819001],,,> 19
Inactive,,NCC(=O)Nc1ccc(Br)cc1 [compound 871334],,,
,3.26,O=C(CCl)Nc1ccccc1F [compound 1522874],,,> 31
,4.77,Cc1cc(Br)ccc1NC(=O)CCl [compound 2097895],,,4
,12.1,CC(C)c1cc(Br)ccc1NC(=O)CCl [compound 4066920],,,2
Inactive,,Cc1cc(Br)ccc1NC(=O)CCCCl [compound 19226390],,,
,2.08,O=C(CCl)Nc1ccc(CO)cc1 [compound 22457525],,,> 48
Inactive,,COC(=O)Nc1ccc(NC(=O)CCl)cc1 [compound 43701226],,,

Structure (SMILES),Male IC50 [1],IC50 [1] [µM],%Inhibition Male @2uM [1] [%],%Inhibition Female @2uM [2] [%],Selectivity [1]
O=C(Nc1ccc(Br)cc1Cl)C(Cl)(Cl)Cl [compound 2725563],Inactive,,,,
